Source: ChEMBL document CHEMBL3885861, “Open TG-GATES”

Species on record: Rattus norvegicus
Assay: Open TG-GATES - Regimen: Single
Format: toxicity, organism-based, Sprague-Dawley
Parameters: regimen Single, gender Male, age 6 weeks
Settings: in vivo, po, route gavage; for gamma-GTP / ALP / ALT / AST / BUN / CRE / Ca / Cl / DBIL / GLC / IP / K / LDH / Na / PL / RALB / TBIL / TC / TG / TP: tissue Plasma; for APTT / Bas / Eos / Fbg / Hb / Ht / Lym / MCH / MCHC / Mono / Neu / Plat / RBC / Ret / WBC: tissue Blood; for KIDNEY_L / KIDNEY_R / KIDNEY_TOTAL: tissue Kidney; for LIVER: tissue Liver

`O=C(CCCN1CCC(O)(c2ccc(Cl)cc2)CC1)c1ccc(F)cc1` [HALOPERIDOL] gave a gamma-GTP (0 mg/kg, 24 h, dose level Control) of 1 IU/L, a TERMINAL_BW (3 mg/kg, 3 h, dose level Low) of 203.1 g and an APTT (3 mg/kg, 3 h, dose level Low) of 16.9 s. For the same compound, the Bas (3 mg/kg, 3 h, dose level Low) was 0%, the Eos (3 mg/kg, 3 h, dose level Low) was 0.8% and the Fbg (3 mg/kg, 3 h, dose level Low) was 205.8 mg/dL. The Hb (3 mg/kg, 3 h, dose level Low) was 13.5 g/dL, the Ht (3 mg/kg, 3 h, dose level Low) was 40.4% and the Lym (3 mg/kg, 3 h, dose level Low) was 70.4%. For the same compound, the MCH (3 mg/kg, 3 h, dose level Low) was 21.8 pg, the MCHC (3 mg/kg, 3 h, dose level Low) was 33.5% and the Mono (3 mg/kg, 3 h, dose level Low) was 8.2%. For the same compound, the Neu (3 mg/kg, 3 h, dose level Low) was 20.6%, the Plat (3 mg/kg, 3 h, dose level Low) was 101.1 x10_4/uL and the RBC (3 mg/kg, 3 h, dose level Low) was 620.8 x10_4/ul. The Ret (3 mg/kg, 3 h, dose level Low) was 8.3%, the WBC (3 mg/kg, 3 h, dose level Low) was 102.1 x10_2/uL and the KIDNEY_L (3 mg/kg, 3 h, dose level Low) was 0.9 g. It also gave a KIDNEY_R (3 mg/kg, 3 h, dose level Low) of 0.9 g, a KIDNEY_TOTAL (3 mg/kg, 3 h, dose level Low) of 1.8 g and an LIVER (3 mg/kg, 3 h, dose level Low) of 9.6 g. For the same compound, the ALP (3 mg/kg, 3 h, dose level Low) was 1074.8 IU/L, the ALT (3 mg/kg, 3 h, dose level Low) was 42.2 IU/L and the AST (3 mg/kg, 3 h, dose level Low) was 61.2 IU/L. For the same compound, the BUN (3 mg/kg, 3 h, dose level Low) was 12.6 mg/dL, the CRE (3 mg/kg, 3 h, dose level Low) was 0.5 mg/dL and the Ca (3 mg/kg, 3 h, dose level Low) was 11.1 mg/dL. It also gave a Cl (3 mg/kg, 3 h, dose level Low) of 105.2 meq/L, a DBIL (3 mg/kg, 3 h, dose level Low) of 0.028 mg/dL and a GLC (3 mg/kg, 3 h, dose level Low) of 202.8 mg/dL. For the same compound, the IP (3 mg/kg, 3 h, dose level Low) was 10.4 mg/dL, the K (3 mg/kg, 3 h, dose level Low) was 4.7 meq/L and the LDH (3 mg/kg, 3 h, dose level Low) was 92.6 IU/L. The Na (3 mg/kg, 3 h, dose level Low) was 139.4 meq/L, the PL (3 mg/kg, 3 h, dose level Low) was 141.2 mg/dL and the RALB (3 mg/kg, 3 h, dose level Low) was 3.6 g/dL. For the same compound, the TBIL (3 mg/kg, 3 h, dose level Low) was 0.3 mg/dL, the TC (3 mg/kg, 3 h, dose level Low) was 78.6 mg/dL and the TG (3 mg/kg, 3 h, dose level Low) was 41.6 mg/dL. For the same compound, the TP (3 mg/kg, 3 h, dose level Low) was 5.7 g/dL, the gamma-GTP (3 mg/kg, 3 h, dose level Low) was 1.4 IU/L and the TERMINAL_BW (3 mg/kg, 6 h, dose level Low) was 200.5 g. It also gave an APTT (3 mg/kg, 6 h, dose level Low) of 16.6 s, a Bas (3 mg/kg, 6 h, dose level Low) of 0% and an Eos (3 mg/kg, 6 h, dose level Low) of 0.6%. It also gave a Fbg (3 mg/kg, 6 h, dose level Low) of 205.2 mg/dL, a Hb (3 mg/kg, 6 h, dose level Low) of 13.5 g/dL and a Ht (3 mg/kg, 6 h, dose level Low) of 40.5%. The Lym (3 mg/kg, 6 h, dose level Low) was 77%, the MCH (3 mg/kg, 6 h, dose level Low) was 21.7 pg and the MCHC (3 mg/kg, 6 h, dose level Low) was 33.3%. The Mono (3 mg/kg, 6 h, dose level Low) was 7.2%, the Neu (3 mg/kg, 6 h, dose level Low) was 15.2% and the Plat (3 mg/kg, 6 h, dose level Low) was 103.7 x10_4/uL. It also gave an RBC (3 mg/kg, 6 h, dose level Low) of 619.8 x10_4/ul, a Ret (3 mg/kg, 6 h, dose level Low) of 8.8% and a WBC (3 mg/kg, 6 h, dose level Low) of 90.9 x10_2/uL. It also gave a KIDNEY_L (3 mg/kg, 6 h, dose level Low) of 0.9 g, a KIDNEY_R (3 mg/kg, 6 h, dose level Low) of 0.9 g and a KIDNEY_TOTAL (3 mg/kg, 6 h, dose level Low) of 1.9 g. For the same compound, the LIVER (3 mg/kg, 6 h, dose level Low) was 9 g, the ALP (3 mg/kg, 6 h, dose level Low) was 897.8 IU/L and the ALT (3 mg/kg, 6 h, dose level Low) was 34.4 IU/L. For the same compound, the AST (3 mg/kg, 6 h, dose level Low) was 57.2 IU/L, the BUN (3 mg/kg, 6 h, dose level Low) was 9.6 mg/dL and the CRE (3 mg/kg, 6 h, dose level Low) was 0.4 mg/dL. For the same compound, the Ca (3 mg/kg, 6 h, dose level Low) was 10.6 mg/dL, the Cl (3 mg/kg, 6 h, dose level Low) was 105.8 meq/L and the DBIL (3 mg/kg, 6 h, dose level Low) was 0.034 mg/dL. For the same compound, the GLC (3 mg/kg, 6 h, dose level Low) was 184.4 mg/dL, the IP (3 mg/kg, 6 h, dose level Low) was 10.6 mg/dL and the K (3 mg/kg, 6 h, dose level Low) was 4.9 meq/L. The LDH (3 mg/kg, 6 h, dose level Low) was 81.6 IU/L, the Na (3 mg/kg, 6 h, dose level Low) was 139.2 meq/L and the PL (3 mg/kg, 6 h, dose level Low) was 142 mg/dL. It also gave an RALB (3 mg/kg, 6 h, dose level Low) of 3.6 g/dL, a TBIL (3 mg/kg, 6 h, dose level Low) of 0.3 mg/dL and a TC (3 mg/kg, 6 h, dose level Low) of 84.4 mg/dL. The TG (3 mg/kg, 6 h, dose level Low) was 32.4 mg/dL, the TP (3 mg/kg, 6 h, dose level Low) was 5.4 g/dL and the gamma-GTP (3 mg/kg, 6 h, dose level Low) was 1.6 IU/L. The TERMINAL_BW (3 mg/kg, 9 h, dose level Low) was 199.3 g, the APTT (3 mg/kg, 9 h, dose level Low) was 16.8 s and the Bas (3 mg/kg, 9 h, dose level Low) was 0%. It also gave an Eos (3 mg/kg, 9 h, dose level Low) of 0.6%, a Fbg (3 mg/kg, 9 h, dose level Low) of 204.8 mg/dL and a Hb (3 mg/kg, 9 h, dose level Low) of 13.6 g/dL. The Ht (3 mg/kg, 9 h, dose level Low) was 40.5%, the Lym (3 mg/kg, 9 h, dose level Low) was 70.4% and the MCH (3 mg/kg, 9 h, dose level Low) was 22 pg. It also gave an MCHC (3 mg/kg, 9 h, dose level Low) of 33.6%, a Mono (3 mg/kg, 9 h, dose level Low) of 9.6% and a Neu (3 mg/kg, 9 h, dose level Low) of 19.4%. For the same compound, the Plat (3 mg/kg, 9 h, dose level Low) was 102.7 x10_4/uL, the RBC (3 mg/kg, 9 h, dose level Low) was 621.4 x10_4/ul and the Ret (3 mg/kg, 9 h, dose level Low) was 9.5%. It also gave a WBC (3 mg/kg, 9 h, dose level Low) of 60.9 x10_2/uL, a KIDNEY_L (3 mg/kg, 9 h, dose level Low) of 0.9 g and a KIDNEY_R (3 mg/kg, 9 h, dose level Low) of 1 g. It also gave a KIDNEY_TOTAL (3 mg/kg, 9 h, dose level Low) of 1.9 g, an LIVER (3 mg/kg, 9 h, dose level Low) of 8.5 g and an ALP (3 mg/kg, 9 h, dose level Low) of 810.6 IU/L. For the same compound, the ALT (3 mg/kg, 9 h, dose level Low) was 28.4 IU/L, the AST (3 mg/kg, 9 h, dose level Low) was 56.6 IU/L and the BUN (3 mg/kg, 9 h, dose level Low) was 10.2 mg/dL. For the same compound, the CRE (3 mg/kg, 9 h, dose level Low) was 0.5 mg/dL, the Ca (3 mg/kg, 9 h, dose level Low) was 10.2 mg/dL and the Cl (3 mg/kg, 9 h, dose level Low) was 106.6 meq/L. It also gave a DBIL (3 mg/kg, 9 h, dose level Low) of 0.018 mg/dL, a GLC (3 mg/kg, 9 h, dose level Low) of 183.4 mg/dL and an IP (3 mg/kg, 9 h, dose level Low) of 10.6 mg/dL. For the same compound, the K (3 mg/kg, 9 h, dose level Low) was 4.6 meq/L, the LDH (3 mg/kg, 9 h, dose level Low) was 84 IU/L and the Na (3 mg/kg, 9 h, dose level Low) was 139.2 meq/L. The PL (3 mg/kg, 9 h, dose level Low) was 126.6 mg/dL, the RALB (3 mg/kg, 9 h, dose level Low) was 3.6 g/dL and the TBIL (3 mg/kg, 9 h, dose level Low) was 0.4 mg/dL. It also gave a TC (3 mg/kg, 9 h, dose level Low) of 71 mg/dL, a TG (3 mg/kg, 9 h, dose level Low) of 31.2 mg/dL and a TP (3 mg/kg, 9 h, dose level Low) of 5.5 g/dL. It also gave a gamma-GTP (3 mg/kg, 9 h, dose level Low) of 1.8 IU/L, a TERMINAL_BW (3 mg/kg, 24 h, dose level Low) of 213.8 g and an APTT (3 mg/kg, 24 h, dose level Low) of 15.9 s. For the same compound, the Bas (3 mg/kg, 24 h, dose level Low) was 0%, the Eos (3 mg/kg, 24 h, dose level Low) was 1.2% and the Fbg (3 mg/kg, 24 h, dose level Low) was 198.8 mg/dL. The Hb (3 mg/kg, 24 h, dose level Low) was 13.6 g/dL, the Ht (3 mg/kg, 24 h, dose level Low) was 40.8% and the Lym (3 mg/kg, 24 h, dose level Low) was 75.6%. It also gave an MCH (3 mg/kg, 24 h, dose level Low) of 22.6 pg, an MCHC (3 mg/kg, 24 h, dose level Low) of 33.3% and a Mono (3 mg/kg, 24 h, dose level Low) of 6%. It also gave a Neu (3 mg/kg, 24 h, dose level Low) of 17.2%, a Plat (3 mg/kg, 24 h, dose level Low) of 105.6 x10_4/uL and an RBC (3 mg/kg, 24 h, dose level Low) of 601 x10_4/ul. The Ret (3 mg/kg, 24 h, dose level Low) was 9.4%, the WBC (3 mg/kg, 24 h, dose level Low) was 75.9 x10_2/uL and the KIDNEY_L (3 mg/kg, 24 h, dose level Low) was 1 g. The KIDNEY_R (3 mg/kg, 24 h, dose level Low) was 1 g, the KIDNEY_TOTAL (3 mg/kg, 24 h, dose level Low) was 1.9 g and the LIVER (3 mg/kg, 24 h, dose level Low) was 11.3 g. For the same compound, the ALP (3 mg/kg, 24 h, dose level Low) was 957.8 IU/L, the ALT (3 mg/kg, 24 h, dose level Low) was 35 IU/L and the AST (3 mg/kg, 24 h, dose level Low) was 59.2 IU/L. For the same compound, the BUN (3 mg/kg, 24 h, dose level Low) was 21.2 mg/dL, the CRE (3 mg/kg, 24 h, dose level Low) was 0.6 mg/dL and the Ca (3 mg/kg, 24 h, dose level Low) was 11.3 mg/dL. It also gave a Cl (3 mg/kg, 24 h, dose level Low) of 105.4 meq/L, a DBIL (3 mg/kg, 24 h, dose level Low) of 0.026 mg/dL and a GLC (3 mg/kg, 24 h, dose level Low) of 180.8 mg/dL. For the same compound, the IP (3 mg/kg, 24 h, dose level Low) was 7.9 mg/dL, the K (3 mg/kg, 24 h, dose level Low) was 5 meq/L and the LDH (3 mg/kg, 24 h, dose level Low) was 104.8 IU/L. For the same compound, the Na (3 mg/kg, 24 h, dose level Low) was 139.2 meq/L, the PL (3 mg/kg, 24 h, dose level Low) was 156.6 mg/dL and the RALB (3 mg/kg, 24 h, dose level Low) was 3.8 g/dL. For the same compound, the TBIL (3 mg/kg, 24 h, dose level Low) was 0.4 mg/dL, the TC (3 mg/kg, 24 h, dose level Low) was 80.6 mg/dL and the TG (3 mg/kg, 24 h, dose level Low) was 102.4 mg/dL. The TP (3 mg/kg, 24 h, dose level Low) was 5.9 g/dL.
